Assay results as given in patent US20100317607A1, “USE OF COMPOUNDS FOR PREPARING ANTI-TUBERCULOSIS AGENTS” (INFECTIOUS DISEASE RESEARCH INSTITUTE, priority 2007, published 2010).
Converted amounts (≈) assume the structure as drawn. Structures can show the parent of a compound that is named as a salt.

Legend:
[1] = test system: H37Rv strain of M. tuberculosis; assay: Alamar Blue Susceptibility Test (MABA); format: cell-based; settings: H37Rv strain of M. tuberculosis, Alamar Blue; for MIC: Mycobacterium tuberculosis, read-out: MABA (TB growth inhibition, colourimetric assay)
[2] = test system: non replicating phase of M. tuberculosis (H37Rv with a plasmid with an acetimidase promoter driving a luciferase gene); assay: microbe, parasite or virus in culture; format: cell-based; settings: non replicating M. tuberculosis H37Rv luciferase strain; for MIC: Mycobacterium tuberculosis, read-out: LORA (TB growth inhibition, MIC)

SMILES | MIC [1] | MIC [2] | MABA (TB growth inhibition, colourimetric assay) [1] | LORA (TB growth inhibition, MIC) [2]
Clc1ccc(CNc2nc(N3CCCCC3)c3ccccc3n2)c(Cl)c1 [Compound 112, N-(2,4-Dichlorobenzyl)-4-(piperidin-1-yl)quinazolin-2-amine hydrochloride] | < 10 µM | < 10 µM |  | 
c1ccc2c(NC3C4CC5CC(C4)CC3C5)nc(N3CCCCC3)nc2c1 (centres unmarked) [Compound 60, N-(2′-Adamantyl)-2-(piperidin-1-yl)quinazolin-4-amine] |  |  | +++ (10-50 μM=+++) | ++++ (key: TB growth<10 μM=++++; 10-50 μM=+++; 50-128 μM=++; >128 μM but inhibited=+; no inhibition=−)
Cc1ccc(CNc2nc(NCc3ccc(C(F)(F)F)cc3)c3ccccc3n2)cc1 [Compound 79, N^4-(4-Trifluoromethylbenzyl)-N^2-(4-methylbenzyl)quinazoline-2,4-diamine] | < 10 µM | 10 to 50 µM (≈ 4.22 to 21.1 µg/mL) |  | 
c1ccc(CNc2nc(NC3Cc4ccccc4C3)nc3ccccc23)cc1 [Compound 131, N^4-Benzyl-N^2-(2,3-dihydro-1H-inden-2-yl)quinazoline-2,4-diamine] | < 10 µM | < 10 µM |  | 
c1ccc2c(NC3C4CC5CC(C4)CC3C5)nc(N3CCOCC3)nc2c1 (centres unmarked) [Compound 19, 2-Morpholino-N-(1-[2′-adamantyl])quinazolin-4-amine] |  |  | +++ (10-50 μM=+++) | +++ (10-50 μM=+++)
FC(F)(F)c1ccc(CNc2nc(N3CCCC3)nc3ccccc23)cc1 [Compound 78, 2-(Pyrrolidin-1-yl)-N-(4-(trifluoromethyl)benzyl)quinazolin-4-amine] | < 10 µM | 10 to 50 µM (≈ 3.72 to 18.6 µg/mL) |  | 
c1ccc(CNc2nc(N3CCCCC3)nc3ccccc23)cc1 [Compound 4, N-Benzyl-2-(piperidin-1-yl)quinazolin-4-amine] | < 10 µM | 10 to 50 µM (≈ 3.18 to 15.9 µg/mL) |  | 
Clc1ccc(CNc2nc(N3CCCCC3)nc3ccccc23)cc1Cl [Compound 68, N-(3,4-Dichlorobenzyl)-2-(piperidin-1-yl)quinazolin-4-amine] | < 10 µM | < 10 µM |  | 
C[C@@H](Nc1nc(N2CCCCC2)nc2ccccc12)c1ccc(Cl)cc1 [Compound 96, (R)—N-(1-(4-Chlorophenyl)ethyl)-2-(piperidin-1-yl)quinazolin-4-amine hydrochloride] | < 10 µM | 10 to 50 µM |  | 
Clc1ccc(CNc2nc(N3CCCCC3)nc3ccccc23)c(Cl)c1 [Compound 69, N-(2,4-Dichlorobenzyl)-2-(piperidin-1-yl)quinazolin-4-amine] | < 10 µM | 10 to 50 µM (≈ 3.87 to 19.4 µg/mL) |  | 
CC(C)(Nc1nc(N2CCCCC2)nc2ccccc12)c1ccccc1 [Compound 53, N-(2-Phenylpropan-2-yl)-2-(piperidin-1-yl)quinazolin-4-amine] | < 10 µM | 10 to 50 µM (≈ 3.46 to 17.3 µg/mL) |  | 
C[C@@H](Nc1nc(N2CCCCC2)nc2ccccc12)c1cccc2ccccc12 [Compound 99, (R)—N-(1-(Naphthalen-1-yl)ethyl)-2-(piperidin-1-yl)quinazolin-4-amine hydrochloride] | < 10 µM | 10 to 50 µM |  | 
Clc1ccc(N2CCN(c3nc(NCc4ccccc4)c4ccccc4n3)CC2)cc1 [Compound 134, N-Benzyl-2-(4-(4-chlorophenyl)piperazin-1-yl)quinazolin-4-amine hydrochloride] | < 10 µM | 10 to 50 µM |  | 
N#Cc1ccc(CNc2nc(N3CCCCC3)nc3ccccc23)cc1 [Compound 92, 4-((2-(Piperidin-1-yl)quinazolin-4-ylamino)methyl)benzonitrile] | < 10 µM | 50 to 128 µM (≈ 17.2 to 44 µg/mL) |  | 
Clc1ccc(CNc2nc(N3CCCCC3)nc3ccccc23)cc1 [Compound 34, N-(4-Chlorobenzyl)-2-(piperidin-1-yl)quinazolin-4-amine] | < 10 µM | 10 to 50 µM (≈ 3.53 to 17.6 µg/mL) |  | 
c1ccc(CNc2nc(N3CCCCC3)c3ccccc3n2)cc1 [Compound 24, N-Benzyl-4-(piperidin-1-yl)quinazolin-2-amine] | 10 to 50 µM (≈ 3.18 to 15.9 µg/mL) | 10 to 50 µM (≈ 3.18 to 15.9 µg/mL) |  | 
Cc1ccc(CNc2nc(N3CCCCC3)nc3ccccc23)cc1 [Compound 43, N-(4-Methylbenzyl)-2-(piperidin-1-yl)quinazolin-4-amine] | < 10 µM | 10 to 50 µM (≈ 3.32 to 16.6 µg/mL) |  | 
Fc1ccc(CNc2nc(N3CCCCC3)nc3ccccc23)c(F)c1 [Compound 115, N-(2,4-Difluorobenzyl)-2-(piperidin-1-yl)quinazolin-4-amine hydrochloride] | < 10 µM | 10 to 50 µM |  | 
c1ccc(CNc2nc(N3CCC(c4ccccc4)CC3)nc3ccccc23)cc1 [Compound 132, N-Benzyl-2-(4-phenylpiperidin-1-yl)quinazolin-4-amine hydrochloride] | < 10 µM | < 10 µM |  | 

SMILES | MIC [1] | MIC [2] | MABA (TB growth inhibition, colourimetric assay) [1] | LORA (TB growth inhibition, MIC) [2]
Fc1cccc(CNc2nc(N3CCCCC3)nc3ccccc23)c1 [Compound 64, N-(3-Fluorobenzyl)-2-(piperidin-1-yl)quinazolin-4-amine] | < 10 µM | 10 to 50 µM (≈ 3.36 to 16.8 µg/mL) |  | 
Clc1ccccc1CNc1nc(N2CCCCC2)nc2ccccc12 [Compound 40, N-(2-Chlorobenzyl)-2-(piperidin-1-yl)quinazolin-4-amine] | < 10 µM | 10 to 50 µM (≈ 3.53 to 17.6 µg/mL) |  | 
Fc1ccc(CNc2nc(N3CCCCC3)nc3ccccc23)cc1F [Compound 116, N-(3,4-Difluorobenzyl)-2-(piperidin-1-yl)quinazolin-4-amine hydrochloride] | < 10 µM | 10 to 50 µM |  | 
CC(Nc1nc(N2CCCCC2)nc2ccccc12)c1ccccc1 (centres unmarked) [Compound 12, N-(1-Phenylethyl)-2-(piperidin-1-yl)quinazolin-4-amine] | 10 to 50 µM (≈ 3.32 to 16.6 µg/mL) | 10 to 50 µM (≈ 3.32 to 16.6 µg/mL) |  | 
CN1CCN(c2nc(NCc3ccccc3)c3ccccc3n2)CC1 [Compound 6, N-Benzyl-2-(4-methylpiperazin-1-yl)quinazolin-4-amine hydrochloride] | 50 to 128 µM | 50 to 128 µM |  | 
C[C@@H](Nc1nc(N2CCCCC2)nc2ccccc12)c1ccc(F)cc1 [Compound 98, (R)—N-(1-(4-Fluorophenyl)ethyl)-2-(piperidin-1-yl)quinazolin-4-amine hydrochloride] | < 10 µM | 10 to 50 µM |  | 
CC(Nc1nc(N2CCN(S(C)(=O)=O)CC2)nc2ccccc12)c1ccccc1 (centres unmarked) [Compound 10, 2-(4-(Methylsulfonyl)piperazin-1-yl)-N-(1-phenylethyl)quinazolin-4-amine] | 50 to 128 µM (≈ 20.6 to 52.7 µg/mL) | 10 to 50 µM (≈ 4.12 to 20.6 µg/mL) |  | 
C[C@@H](Nc1nc(N2CCCCC2)nc2ccccc12)c1ccc(C(F)(F)F)cc1 [Compound 117, (R)-2-(Piperidin-1-yl)-N-(1-(4-(trifluoromethyl)phenyl)ethyl)quinazolin-4-amine] | < 10 µM | < 10 µM |  | 
FC(F)(F)c1ccc(CNc2nc(N3CCCCC3)nc3ccccc23)cc1 [Compound 38, 2-(Piperidin-1-yl)-N-(4-(trifluoromethyl)benzyl)quinazolin-4-amine] | < 10 µM | < 10 µM |  | 
CC(Nc1nc(N2CCN(C(=O)C3CCCC3)CC2)nc2ccccc12)c1ccccc1 (centres unmarked) [Compound 21, Cyclopentyl(4-(4-(1-phenylethylamino)quinazolin-2-yl)piperazin-1-yl)methanone] | 10 to 50 µM (≈ 4.3 to 21.5 µg/mL) | 10 to 50 µM (≈ 4.3 to 21.5 µg/mL) |  | 
FC(F)(F)c1ccccc1CNc1nc(N2CCCCC2)nc2ccccc12 [Compound 42, 2-(Piperidin-1-yl)-N-(2-(trifluoromethyl)benzyl)quinazolin-4-amine] | < 10 µM | 10 to 50 µM (≈ 3.86 to 19.3 µg/mL) |  | 
Cn1ncc2c(NCc3ccccc3)nc(N3CCCC3)nc21 [Compound 20, N-Benzyl-1-methyl-6-(pyrrolidin-1-yl)-1H-pyrazolo[3,4-d]pyrimidin-4-amine] | 50 to 128 µM (≈ 15.4 to 39.5 µg/mL) |  |  | −
c1csc(CNc2nc(N3CCCCC3)nc3ccccc23)c1 [Compound 48, 2-(Piperidin-1-yl)-N-(thiophen-2-ylmethyl)quinazolin-4-amine] | < 10 µM | 10 to 50 µM (≈ 3.24 to 16.2 µg/mL) |  | 
c1ccc2c(NC3C4CC5CC(C4)CC3C5)nc(N3CCOCC3)nc2c1 (centres unmarked) [Compound 16, N-(2′-Adamantyl)-2-morpholinoquinazolin-4-amine] |  |  | +++ (10-50 μM=+++) | +++ (10-50 μM=+++)
c1ccc(CNc2nc(N3CCN(c4ccccc4)CC3)nc3ccccc23)cc1 [Compound 133, N-Benzyl-2-(4-phenylpiperazin-1-yl)quinazolin-4-amine hydrochloride] | < 10 µM | 10 to 50 µM |  | 
CN(C)c1ccc(CNc2nc(N3CCCCC3)nc3ccccc23)cc1 [Compound 62, N-(4-(Dimethylamino)benzyl)-2-(piperidin-1-yl)quinazolin-4-amine] | < 10 µM | 10 to 50 µM (≈ 3.61 to 18.1 µg/mL) |  | 
CCC(CC)(Nc1nc(N2CCCC2)nc2ccccc12)c1ccccc1 [Compound 124, N-(3-Phenylpentan-3-yl)-2-(pyrrolidin-1-yl)quinazolin-4-amine] | < 10 µM | 10 to 50 µM (≈ 3.61 to 18 µg/mL) |  | 
c1ccc(CNc2cc(N3CCCCC3)nc3ccccc23)cc1 [Compound 54, N-Benzyl-2-(piperidin-1-yl)quinolin-4-amine] | < 10 µM | < 10 µM |  | 
